Source: patent publication US6706740B2, “Fungicidal heterocyclic aromatic amides and their compositions, methods of use and preparation” (Dow AgroSciences LLC, priority 1999, dated 2004)
Where two headings read alike, the source gives them in different places.

Legend:
[1] = tested on: Phytophthora infestans (PHYTIN); experiment: microbe, parasite or virus in culture; type: cell-based; details: Phytophthora infestans, read-out: PHYTIN in vitro Growth Inhibition
[2] = tested on: Leptosphaeria nodorum—LEPTNO; experiment: Glume Blotch of Wheat, in vivo whole plant, 24 Hour Protectant; details: for pest or weed control at 100 ppm: Leptosphaeria, control of fungal infection vs untreated plants, read-out: LEPTNO in vivo 1 Day Protectant
[3] = tested on: Phytophthora infestans—PHYTIN; experiment: whole plant or invertebrate; type: in vivo; details: Phytophthora, in Solanum lycopersicum, 24 h, read-out: PHYTIN in vivo 1 Day Protectant
Ustilago maydis (USTIMA) = experiment: microbe, parasite or virus in culture; type: cell-based; details: Mycosarcoma maydis, read-out: USTIMA in vitro Growth Inhibition
[4] = tested on: Rhizoctonia solani (RHIZSO); experiment: microbe, parasite or virus in culture; type: cell-based; details: Rhizoctonia solani, read-out: RHIZSO in vitro Growth Inhibition
Septoria tritici—SEPTTR = experiment: Leaf Blotch of Wheat, in vivo whole plant, 24 Hour Protectant; details: for pest or weed control at 100 ppm: Zymoseptoria tritici, 24 h, control of fungal infection vs untreated plants, read-out: SEPTTR in vivo 1 Day Protectant
[5] = tested on: Magnaporthe grisea (Pyricularia oryzae—PYRIOR); experiment: microbe, parasite or virus in culture; type: cell-based; details: Pyricularia oryzae, read-out: PYRIOR in vitro Growth Inhibition
[6] = tested on: Puccinia recondita—PUCCRT; experiment: Brown Rust of Wheat, in vivo whole plant, 24 Hour Protectant; details: for pest or weed control at 100 ppm: Puccinia, control of fungal infection vs untreated plants, read-out: PUCCRT in vivo 1 Day Protectant
Erysiphe graminis—ERYSGT = experiment: Powdery Mildew of Wheat, in vivo whole plant, 24 Hour Protectant; details: Erysiphe, read-out: ERYSGT in vivo 1 Day Protectant
[7] = tested on: Stagonospora nodorum (Leptosphaeria nodorum—LEPTNO); experiment: In vitro fungal growth inhibition, Stagonospora nodorum (LEPTNO); type: cell-based; details: Leptosphaeria, read-out: LEPTNO in vitro Growth Inhibition
[8] = tested on: Mycosphaerella graminicola (Septoria tritici—SEPTTR); experiment: In vitro fungal growth inhibition, Mycosphaerella graminicola (SEPTTR); type: cell-based; details: Zymoseptoria tritici, read-out: SEPTTR in vitro Growth Inhibition
[9] = wheat plants sprayed at 100 ppm, inoculated after 24 hours
[10] = wheat plants sprayed at 100 ppm, inoculated after 24 hours, control of fungal infection vs untreated plants
[11] = 100 ppm spray, wheat, 24 hour protectant
[12] = 100 ppm spray, wheat, 24 hour protectant, control of fungal infection vs untreated plants
[13] = 100 ppm spray, 24 hour protectant, wheat
[14] = 100 ppm spray, 24 hour protectant, wheat, control of fungal infection vs untreated plants
[15] = 100 ppm spray, wheat, 24 hour protectant, % control of fungal infection vs untreated plants

Row | SMILES | inhibition at 25 ppm [1] [%] | pest or weed control at 100 ppm [2, 9] [%] | pest or weed control at 100 ppm [3] [%] | inhibition at 25 ppm (Ustilago maydis (USTIMA)) [%] | inhibition at 25 ppm [4] [%] | pest or weed control at 100 ppm (Septoria tritici—SEPTTR; [9]) [%] | inhibition at 25 ppm [5] [%] | pest or weed control at 100 ppm [6, 9] [%] | pest or weed control at 100 ppm (Erysiphe graminis—ERYSGT; [10]) [%] | inhibition at 25 ppm ([7]; 25 ppm in the growth medium) [%] | inhibition at 25 ppm ([8]; 25 ppm in the growth medium) [%] | pest or weed control at 100 ppm [2, 11] [%] | pest or weed control at 100 ppm (Septoria tritici—SEPTTR; [11]) [%] | pest or weed control at 100 ppm [6, 11] [%] | pest or weed control at 100 ppm (Erysiphe graminis—ERYSGT; [12]) [%] | inhibition at 25 ppm ([7]; 25 ppm in growth medium) [%] | inhibition at 25 ppm ([8]; 25 ppm in growth medium) [%] | pest or weed control at 100 ppm [2, 13] [%] | pest or weed control at 100 ppm (Septoria tritici—SEPTTR; [13]) [%] | pest or weed control at 100 ppm [6, 13] [%] | further results
1 | COc1ccnc(C(=O)N[C@@H]2OC[C@@H](OCc3ccccc3)[C@H](OCc3ccccc3)[C@H]2OCc2ccccc2)c1OC(C)=O [Compound 592] | < 80 | 25 to 74 | < 25 | < 80 | < 80 | 25 to 74 | < 80 | < 25 | < 25 | < 80 | < 80 |  |  |  |  |  |  |  |  |  | 
2 | COc1ccnc(C(=O)Nc2ccccc2Oc2ccc(C#N)cc2)c1O [Compound 419] | < 80 |  | 25 to 74 | < 80 | < 80 |  | < 80 |  |  |  |  | < 25 | < 25 | < 25 | < 25 | < 80 | < 80 |  |  |  | 
3 | COc1ccnc(C(=O)N[C@H]2COC(=O)[C@H](Cc3ccccc3)[C@@H](O)[C@H](C)OC2=O)c1O [Compound 383] | < 80 |  | < 25 | < 80 | < 80 |  | < 80 |  |  |  |  | < 25 | < 25 | 25 to 74 | < 25 | < 80 | < 80 |  |  |  | 
4 | COc1ccnc(C(=O)NC2CC(C)(C)C=CC=C2C)c1O (centres unmarked) [Compound 278] | < 80 |  | < 25 | < 80 | < 80 |  | < 80 |  |  |  |  |  |  |  |  | < 80 | < 80 | 25 to 74 | 25 to 74 | 25 to 74 | pest or weed control at 100 ppm (Erysiphe graminis—ERYSGT; [14]): < 25%
5 | COc1ccnc(C(=O)NC2C[C@H](C)O[C@](C)(Cc3ccccc3)C2)c1O (some centres unmarked) [Compound 313] | < 80 |  | < 25 | < 80 | < 80 |  | < 80 |  |  |  |  |  |  |  |  | < 80 | < 80 | 25 to 74 | 25 to 74 | 25 to 74 | pest or weed control at 100 ppm (Erysiphe graminis—ERYSGT; [14]): 25 to 74%
6 | CSc1ccnc(C(=O)NC2CC(C)(C)CC(C)(C)C2)c1O [Compound 477] | < 80 | 25 to 74 | < 25 | < 80 | < 80 | 25 to 74 | < 80 | < 25 | < 25 | < 80 | < 80 |  |  |  |  |  |  |  |  |  | 
7 | COc1ccnc(C(=O)N[C@H]2COC(=O)[C@H](Cc3ccccc3)[C@@H](OC(=O)C3C(C)CCCC3C)[C@H](C)OC2=O)c1O (some centres unmarked) [Compound 393] | < 80 |  | < 25 | > 80 | < 80 |  | > 80 |  |  |  |  | 25 to 74 | 25 to 74 | 25 to 74 | < 25 | > 80 | > 80 |  |  |  | 
8 | COc1ccnc(C(=O)NC2CC(C)(C)CC(C)(C#N)C2)c1OC(C)=O (centres unmarked) [Compound 574] | < 80 | 25 to 74 | < 25 | < 80 | < 80 | 25 to 74 | < 80 | < 25 | < 25 | < 80 | < 80 |  |  |  |  |  |  |  |  |  | 
9 | CC(NC(=O)c1ncccc1O)c1ccc(Cl)cc1 (centres unmarked) [Compound 230] | > 80 |  | < 25 | < 80 | < 80 |  | > 80 |  |  |  |  |  |  |  |  | > 80 | > 80 | 25 to 74 | 25 to 74 | < 25 | pest or weed control at 100 ppm (Erysiphe graminis—ERYSGT; [14]): < 25%
10 | COc1ccnc(C(=O)NC2CC(c3ccco3)CC(C)(C)C2)c1O (centres unmarked) [Compound 258] | > 80 |  | < 25 | < 80 | < 80 |  | < 80 |  |  |  |  |  |  |  |  | > 80 | > 80 | 25 to 74 | 25 to 74 | < 25 | pest or weed control at 100 ppm (Erysiphe graminis—ERYSGT; [14]): < 25%
11 | COc1ccnc(C(=O)N[C@H]2COC(=O)[C@H](Cc3ccccc3)[C@@H](OC(=O)C(C)C)[C@H](C)OC2=O)c1OC(=O)COCc1ccccc1 [Compound 656] | < 80 |  | < 25 | < 80 | < 80 |  | > 80 |  |  |  |  |  |  |  |  | > 80 | < 80 |  |  |  | LEPTNO in vivo 1 Day Protectant [2, 15]: + +; SEPTTR in vivo 1 Day Protectant (Septoria tritici—SEPTTR; [15]): + +; PUCCRT in vivo 1 Day Protectant [6, 15]: + +; pest or weed control at 100 ppm (Erysiphe graminis—ERYSGT; [15]): < 25%
12 | COc1ccnc(C(=O)N[C@@H]2OC[C@@H](OCc3ccccc3)[C@H](OCc3ccccc3)[C@H]2OCc2ccccc2)c1O [Compound 332] | < 80 |  | < 25 | < 80 | < 80 |  | < 80 |  |  |  |  | 25 to 74 | 25 to 74 | < 25 | < 25 | < 80 | < 80 |  |  |  | 
13 | COc1ccnc(C(=O)Nc2ccc(Oc3cccc(Cl)c3)cc2)c1O [Compound 442] | < 80 |  | 25 to 74 | < 80 | < 80 |  | > 80 |  |  |  |  | < 25 | < 25 | 25 to 74 | < 25 | > 80 | > 80 |  |  |  | 
14 | COc1ccnc(C(=O)N[C@@H]2CC3CC2C[C@@H]3COCc2cccc(C(F)(F)F)c2)c1O (some centres unmarked) [Compound 297] | < 80 |  | < 25 | < 80 | > 80 |  | > 80 |  |  |  |  |  |  |  |  | > 80 | > 80 | 25 to 74 | 25 to 74 | < 25 | pest or weed control at 100 ppm (Erysiphe graminis—ERYSGT; [14]): < 25%
15 | O=C(Nc1ccc(Oc2ccccc2C(F)(F)F)cc1)c1nc(Br)ccc1O [Compound 497] | < 80 | 25 to 74 | < 25 | < 80 | < 80 | 25 to 74 | < 80 | 25 to 74 | < 25 | < 80 | < 80 |  |  |  |  |  |  |  |  |  | 
16 | CC(C)C(=O)O[C@H]1[C@H](C)OC(=O)[C@@H](NC(=O)c2nnc(O)nc2O)COC(=O)[C@@H]1Cc1ccccc1 [Compound 544] | < 80 | 25 to 74 | < 25 | < 80 | < 80 | 25 to 74 | < 80 | 25 to 74 | < 25 | < 80 | < 80 |  |  |  |  |  |  |  |  |  | 
